Legend:
[1] = system: mouse splenocytes; assay: Inflammatory cytokine detection in splenocytes (CBA); format: cell-based, C57BL/6j mice
Experimental: (§1) Bone marrow cells were harvested from femurs and tibias of C57BL/6j. After red blood cells were removed with ammonium-chloride-potassium buffer, the bone marrow cells were cultured with complete RPMI-1640 medium and 2 ng/ml of granulocyte macrophage colony-stimulating factor (GM-CFS) at 5% CO2 and 37° C. for 6 days. Medium was changed twice during 6 days culture. Single cell suspension of splenocytes was prepared in the same way as one in IL-6 detection assay. BMDC or splenocytes were stimulated in triplicate with Imiquimod-derived new TLR ligand compounds, 412, 420, 421, 422, IMQ (414) and Resquimod (415) at various concentration of 20.8 nmol/ml, 5.2 nmol/ml, 1.3 nmol/ml, 0.325 nmol/ml and 0 nmol/ml. 48 hours after stimulation, the supernatants were harvested and frozen at −80° C. until detection. A cytometric bead array (CBA, BD Bioscience) was performed on inflammatory cytokines following the manufacture's instruction. 500 events were collected. Analysis of all samples was performed on FACScanto-II machine with software and further analyzed with Flowjo. Standard curves and negative control (PBS) were included for each cytokine to calculate the cytokine concentration in the samples.

[2] = system: BMDC or splenocytes; assay: Inflammatory cytokine detection in BMDC and splenocytes (CBA); format: cell-based, C57BL/6j mice; conditions: Example 6, FIG. 23; compared to resiquimod and imiquimod
Experimental: as §1

[3] = target: T1, human TLR8 (Homo sapiens, UniProt Q9NR97); assay: TLR7/8-NF-κB reporter assay (HEK-TLR8, SEAP); format: cell-based; conditions: HEK-TLR8 cells, 24 hrs, read-out: EC50 of TLR8 (mean ± SD)
T1 construct: host or cells: HEK (HEK293) cells with NF-kB-responsive SEAP reporter
T1 sequence (Q9NR97 27-1041): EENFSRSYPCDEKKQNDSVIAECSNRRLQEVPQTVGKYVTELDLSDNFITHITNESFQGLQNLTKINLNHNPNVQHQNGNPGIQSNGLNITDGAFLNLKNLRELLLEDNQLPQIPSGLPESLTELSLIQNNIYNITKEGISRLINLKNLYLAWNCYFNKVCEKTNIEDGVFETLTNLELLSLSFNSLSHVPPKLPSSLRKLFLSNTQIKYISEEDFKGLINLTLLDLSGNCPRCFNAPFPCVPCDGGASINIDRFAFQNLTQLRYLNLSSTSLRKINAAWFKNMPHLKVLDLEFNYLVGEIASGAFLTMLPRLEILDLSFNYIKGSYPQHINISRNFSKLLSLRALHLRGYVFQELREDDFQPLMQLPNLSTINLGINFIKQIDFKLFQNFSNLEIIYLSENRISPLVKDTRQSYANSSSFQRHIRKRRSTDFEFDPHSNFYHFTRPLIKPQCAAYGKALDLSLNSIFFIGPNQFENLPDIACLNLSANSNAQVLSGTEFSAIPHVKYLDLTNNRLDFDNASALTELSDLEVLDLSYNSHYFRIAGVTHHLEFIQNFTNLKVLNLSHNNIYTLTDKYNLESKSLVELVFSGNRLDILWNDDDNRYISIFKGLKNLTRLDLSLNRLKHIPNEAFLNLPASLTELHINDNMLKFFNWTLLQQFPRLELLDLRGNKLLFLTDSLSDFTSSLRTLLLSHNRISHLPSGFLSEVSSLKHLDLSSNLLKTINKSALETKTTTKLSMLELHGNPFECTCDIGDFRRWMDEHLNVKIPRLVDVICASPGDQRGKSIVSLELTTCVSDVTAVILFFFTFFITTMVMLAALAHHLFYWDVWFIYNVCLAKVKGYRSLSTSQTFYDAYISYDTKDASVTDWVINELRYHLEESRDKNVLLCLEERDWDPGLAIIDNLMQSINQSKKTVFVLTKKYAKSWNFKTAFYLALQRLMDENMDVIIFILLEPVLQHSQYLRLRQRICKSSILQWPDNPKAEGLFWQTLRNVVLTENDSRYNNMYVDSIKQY
Experimental: Human embryonic kidney (HEK) cells that were stably transfected with human TLR7 or TLR8 and an NF-κB—responsive secreted embryonic alkaline phosphatase (SEAP) gene (HEK-TLR7/8) were purchased from InvivoGen (San Diego, Calif.). The procedure used to measure TLR7 or TLR8 agonist activity was conducted as described by Hood et al. (Hood J. D, et al., Human Vaccines, 2010, 6, 4, 322-335). Briefly, HEK-TLR7/8 cells were stimulated with 3.3 or 30 μM of compound in a 96-well plate in DMEM containing 10% FBS and 0.01% Normocin (InvivoGen) for 24 hrs. Twenty microliters of the supernatant from each well was incubated with Quanti-blue substrate solution (InvivoGen) at 37° C. for 1 hour and absorbance was read at 650 nm using a Synergy plate reader (Biotek, Winooski, Vt.).

EC50 [3]: 49.6 ± 1.02 µM
SMILES: CCCCc1nc2c(N)nc3cc(C(=O)OC)ccc3c2n1CC(C)(C)O [Compound 420, 4-Amino-2-butyl-1-(2-hydroxy-2-methylpropyl)-7-methoxycarbonyl-1H-imidazo[4,5-c]quinoline]
IL-10 (anti-inflammatory) secretion [1]: less IL-10 (anti-inflammatory) secretion compared to resiquimod | elaboration of proinflammatory TNFa [2]: significantly greater elaboration of proinflammatory TNFa compared to the other drugs

— US9034336B2, “Immunomodulators and immunomodulator conjugates” (Regents of the University of Minnesota, priority 2011, dated 2015)
